Laboratory results from US11472776B2, “Quinazolinones that inhibit the formation of tau oligomers and their method of use” (OLIGOMERIX INC., priority 2016, dated 2022).
Structures can show the parent of a compound that is named as a salt.

Tests used:
[1] = molecular target: T1, recombinant human tau 4R2N (Homo sapiens (Human), UniProt P10636); assay: Confirmatory Assay (CONFA), SDS-PAGE quantification of tau monomer and oligomers; format: biochemical; details: tau target 300 nM, 3 hours at room temperature, compound 0.098 uM-50 uM
Procedure: (§1) Bacterial recombinant human tau 4R2N (the largest isoform of tau in the central nervous system, 441 amino acids in length, Seq. ID 1) constructs with either 6×-His or StrepII N-terminal epitope tags were purified from bacterial lysate using denaturing conditions to prepare tau in its monomeric form.
CONFA Assay: Confirmatory Assay (CONFA) used as a secondary screen for confirming the mechanism of action of compounds identified as hits using the ALA assay. The assay is performed using a similar procedure as ALA except that it utilizes SDS-PAGE for visualization and quantification of tau monomer and aggregated species (dimer, trimer, tetramer, pentamer, etc.). Only a single construct of tau without epitope tags is necessary, but the assay can use the same target prepared for the ALA assay also.
For the CONFA assay, Tau target (300 nM) was prepared in buffer (Tris-HCl pH 7.4) and was incubated at room temperature for 3 hours with vehicle control (DMSO) and a dose range of a compound of the disclosure (0.098 uM-50 uM). […] AlphaView software (Protein Simple) was used for quantification of tau monomer and oligomers.

[2] = molecular target: T1, recombinant human tau 4R2N; assay: AlphaLisa Assay (ALA), primary screen for inhibition of tau oligomer formation; format: biochemical; details: tau target 300 nM, 4 hours at room temperature, compound 0.098 uM-50 uM
Description: as §1
ALA Assay: AlphaLisa Assay (ALA) was used as a primary screen for identifying compounds that inhibit tau oligomer formation. It is a bead based assay that only gives signal when the beads are in close proximity to each other. When the tau monomer (target) is incubated it forms higher order aggregates (dimer, trimer, tetramer, etc) so that when the donor and acceptor beads bind to the epitope tags of tau they are in close proximity and generate signal.
Tau target (equal mixture of each construct at 300 nM) was prepared in buffer (Tris-HCl pH 7.4) and was incubated in 96-well plates at room temperature for 4 hours with vehicle control (DMSO) and a dose range of a compound of the disclosure (0.098 uM-50 uM). […] The positive control (non-incubated target) & blank (no tau) were prepared and mixed with beads in bead buffer and the plate was read immediately using the EnVision plate reader (Perkin Elmer).

[3] = Tolerability over the course of the htau mouse study; format: in vivo; details: all doses (10, 40, 100 mg/kg in feed), htau mice
Procedure: (§2) Four groups of htau mice (n=25 per group) were treated from 2.5 to 6.5 months of age with 0, 10, 40 and 100 mg/kg of the compound of Example 20 milled into feed. The study was performed independently and blinded. The primary endpoint of the study was reduction of insoluble tau aggregates in the brains of the mice with statistical significance. […] Methods for biochemical analyses of tau used in this study have been previously described (Acker CM et al. Sensitive quantitative assays for tau and phospho-tau in transgenic mouse models. Neurobiol Aging. 2013. 34:338). The results in FIG. 1 show in vivo efficacy of the compound in reducing tau pathology. Levels of insoluble tau in the cortices of htau mice treated with the compound of Example 20 were determined using the pan-tau monoclonal antibody (mAb) DA31. These values were normalized to total tau in the lysates of the cortex of each mouse. Error bars indicate standard error of the mean. The P values of comparisons of the groups treated with 10, 40 or 100 mg/kg of the compound of Example 20 to the control group (white bar, 0 mg/kg) are 0.0503 (horizontal hatch bar, 10 mg/kg), 0.0154 (diagonal hatch bar, 40 mg/kg) and 0.0488 (vertical hatch bar, 100 mg/kg). * indicates P value <0.05.

[4] = test system: insoluble tau aggregates; assay: Reduction of insoluble tau aggregates in the brains of treated htau mice; format: in vivo
Procedure: as §2

T1 sequence (P10636 other isoform, or with tags, fused parts or gaps): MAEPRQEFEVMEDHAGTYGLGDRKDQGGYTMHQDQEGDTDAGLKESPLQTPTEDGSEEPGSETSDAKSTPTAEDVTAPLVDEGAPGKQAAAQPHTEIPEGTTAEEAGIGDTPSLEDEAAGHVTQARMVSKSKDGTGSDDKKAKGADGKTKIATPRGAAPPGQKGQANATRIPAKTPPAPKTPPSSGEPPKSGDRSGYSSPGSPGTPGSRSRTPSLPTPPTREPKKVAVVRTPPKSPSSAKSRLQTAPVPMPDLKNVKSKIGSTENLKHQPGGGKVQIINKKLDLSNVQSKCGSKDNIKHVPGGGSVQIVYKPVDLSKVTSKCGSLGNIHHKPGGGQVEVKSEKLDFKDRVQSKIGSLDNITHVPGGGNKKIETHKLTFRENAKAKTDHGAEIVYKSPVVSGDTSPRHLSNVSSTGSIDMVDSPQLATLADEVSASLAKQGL

CCc1ccc(-n2c(-c3cccnc3)nc3ccccc3c2=O)cc1O [Ex. 1, 3-(4-Ethyl-3-hydroxyphenyl)-2-(pyridin-3-yl)quinazolin-4(3H)-one]
IC50 [1]: 4.18 µM
IC50 [2]: 1.9 µM

Cc1ccc(-n2c(-c3cccnc3)nc3ccccc3c2=O)cc1O [Ex. 20, 3-(4-Methyl-3-Hydroxyphenyl)-2-(Pyridin-3-yl)Quinazolin-4(3H)-One Hydrochloride]
tolerability over the course of the study [3]: well tolerated
toxic effects on weight, behavior or morbidity [3]: did not cause toxic effects on weight, behavior or morbidity
reduction of insoluble tau, statistical significance ([4]; 40 mg/kg and 100 mg/kg doses, male htau mice): achieved with statistical significance
in vivo activity: reduction of insoluble tau aggregates in the brains of treated htau mice ([4]; FIG. 1 legend): achieved with statistical significance
reduction of insoluble tau ([4]; htau mice, 10, 40 and 100 mg/kg milled into feed, from 2.5 to 6.5 months of age): reduced insoluble tau at all doses
